Laboratory results taken from ChEMBL document CHEMBL4732126, “Design, synthesis, and biodistribution studies of new analogues of marine alkaloids: Potent in vitro and in vivo fungicidal agents against Candida spp” (Eur J Med Chem, 2021).
Active and inactive are the calls of the source. The rule behind the calls is not given here.

Assays:
[1] = Toxicity in Swiss mouse infected with Candida albicans ATCC 10231 assessed as effect on heart at 10 mg/kg, ip administered at 2, 24 and 48 hrs post-infection and measured at 24 hrs after last dose by macroscopic analysis; format: organism-based; conditions: in vivo, 72 h
[2] = Toxicity in Swiss mouse assessed as relative liver weight at 3 mg/kg, ip measured after 24 hrs (reference value: 49.42 +/- 7.17 g); format: organism-based; conditions: in vivo
[3] = Toxicity in Swiss mouse assessed as effect on kidney at 0.5 to 10 mg/kg, ip measured after 24 hrs by macroscopic analysis; format: organism-based; conditions: in vivo, dose 0.5-10 mg/kg
[4] = Toxicity in Swiss mouse assessed as body weight at 3 mg/kg, ip measured after 24 hrs (reference value: 36.25 +/- 0.31 g); format: organism-based; conditions: in vivo
[5] = tested on: Candida albicans; experiment: Antifungal activity against Candida albicans isolate 12 assessed as reduction in fungal growth incubated for 48 hrs by broth microdilution method; format: functional
[6] = tested on: Candida albicans; experiment: Antibiofilm activity against Candida albicans ATCC 10231 assessed as reduction in mature biofilm at 125 ug/ml incubated for 48 hrs by crystal violet staining based spectrophotometric analysis relative to control; format: functional
[7] = tested on: Candida albicans; experiment: Antifungal activity against Candida albicans isolate 1 assessed as reduction in fungal growth incubated for 48 hrs by broth microdilution method; format: functional
[8] = tested on: Nakaseomyces glabratus; experiment: Antifungal activity against Candida glabrata ATCC 2001 assessed as reduction in fungal growth incubated for 48 hrs by broth microdilution method; format: functional
[9] = Toxicity in Swiss mouse assessed as ataxia at 20 mg/kg, ip measured after 30 mins; format: organism-based; conditions: in vivo, 0.5 h
[10] = tested on: Candida albicans; experiment: In vivo antifungal activity in Swiss mouse infected with Candida albicans ATCC 10231 assessed as reduction in fungal load in kidney at 0.5 mg/kg, ip administered at 2, 24 and 48 hrs post-infection and measured per gm of organ at 24 hrs post-last dose (reference value: 2.47); format: functional; conditions: time 72 hrs
[11] = Toxicity in Swiss mouse assessed as effect on heart at 0.5 to 10 mg/kg, ip measured after 24 hrs by macroscopic analysis; format: organism-based; conditions: in vivo, dose 0.5-10 mg/kg
[12] = Toxicity in Swiss mouse assessed as relative spleen weight at 1 mg/kg, ip measured after 24 hrs (reference value: 4.02 +/- 0.59 g); format: organism-based; conditions: in vivo
[13] = Toxicity in Swiss mouse assessed as relative liver weight at 0.5 mg/kg, ip measured after 24 hrs (reference value: 49.42 +/- 7.17 g); format: organism-based; conditions: in vivo
[14] = Toxicity in Swiss mouse assessed as relative lung weight at 3 mg/kg, ip measured after 24 hrs (reference value: 6.35 +/- 0.68 g); format: organism-based; conditions: in vivo
[15] = tested on: Candida albicans; experiment: Antifungal activity against Candida albicans isolate 3 assessed as reduction in fungal growth incubated for 48 hrs by broth microdilution method; format: functional
[16] = tested on: Candida albicans; experiment: Antifungal activity against Candida albicans isolate 11 assessed as reduction in fungal growth incubated for 48 hrs by broth microdilution method; format: functional
[17] = Toxicity in Swiss mouse assessed as relative liver weight at 10 mg/kg, ip measured after 24 hrs (reference value: 49.42 +/- 7.17 g); format: organism-based; conditions: in vivo
[18] = tested on: Candida albicans; experiment: Antibiofilm activity against Candida albicans ATCC 10231 assessed as reduction in biofilm formation at 0.24 to 7.81 ug/ml by crystal violet staining based spectrophotometric analysis; format: functional, organism-based; conditions: dose 0.24-7.81 µg/ml
[19] = tested on: Candida tropicalis; experiment: Antifungal activity against Candida tropicalis ATCC 28707 assessed as reduction in fungal growth incubated for 48 hrs in presence of sorbitol by broth microdilution method; format: functional
[20] = tested on: Candida albicans; experiment: Fungicidal activity against Candida albicans isolate 12 assessed as fungal killing incubated for 48 hrs followed by plating on SD agar plate; format: functional; conditions: read-out: MFC99.9
[21] = tested on: Candida albicans; experiment: In vivo antifungal activity in Swiss mouse infected with Candida albicans ATCC 10231 assessed as reduction in fungal load in kidney at 1 mg/kg, ip administered at 2, 24 and 48 hrs post-infection and measured per gm of organ at 24 hrs post-last dose (reference value: 2.47); format: functional; conditions: time 72 hrs
[22] = Toxicity in Swiss mouse assessed as relative lung weight at 1 mg/kg, ip measured after 24 hrs (reference value: 6.35 +/- 0.68 g); format: organism-based; conditions: in vivo
[23] = tested on: Candida albicans; experiment: Antifungal activity against Candida albicans ATCC 10231 assessed as reduction in fungal growth incubated for 48 hrs in presence of ergosterol by broth microdilution method; format: functional
[24] = tested on: Candida albicans; experiment: Fungicidal activity against Candida albicans isolate 3 assessed as fungal killing incubated for 48 hrs followed by plating on SD agar plate; format: functional; conditions: read-out: MFC99.9
[25] = Toxicity in Swiss mouse assessed as relative heart weight at 20 mg/kg, ip measured after 24 hrs (reference value: 4.75 +/- 0.60 g); format: organism-based; conditions: in vivo
[26] = tested on: Candida albicans; experiment: Disruption of cell membrane in Candida albicans ATCC 10231 assessed as increase in intracellular leakage at MIC incubated for 24 hrs by UV spectrophotometric analysis; format: cell-based
[27] = tested on: Candida albicans; experiment: Antifungal activity against Candida albicans ATCC 10231 assessed as inhibition of yeast to hypha morphological transition at 15.6 ug/ml measured upto 72 hrs by microscopic analysis; format: functional, organism-based; conditions: dose 15.6 µg/ml, time hrs <=72
[28] = tested on: Candida albicans; experiment: Fungicidal activity against Candida albicans isolate 13 assessed as fungal killing incubated for 48 hrs followed by plating on SD agar plate; format: functional; conditions: read-out: MFC99.9
[29] = Toxicity in Swiss mouse assessed as relative liver weight at 20 mg/kg, ip measured after 24 hrs (reference value: 49.42 +/- 7.17 g); format: organism-based; conditions: in vivo
[30] = tested on: Candida albicans; experiment: Antifungal activity against Candida albicans ATCC 18804 assessed as reduction in fungal growth incubated for 48 hrs by broth microdilution method; format: functional
[31] = tested on: Candida albicans; experiment: In vivo antifungal activity in Swiss mouse infected with Candida albicans ATCC 10231 assessed as reduction in fungal load in spleen at 1 mg/kg, ip administered at 2, 24 and 48 hrs post-infection and measured per gm of organ at 24 hrs post-last dose (reference value: 2.34); format: functional; conditions: time 72 hrs
[32] = tested on: Candida albicans; experiment: Fungicidal activity against Candida albicans isolate 10 assessed as fungal killing incubated for 48 hrs followed by plating on SD agar plate; format: functional; conditions: read-out: MFC99.9
[33] = Toxicity in Swiss mouse assessed as body weight at 10 mg/kg, ip measured after 24 hrs (reference value: 36.25 +/- 0.31 g); format: organism-based; conditions: in vivo
[34] = Toxicity in Swiss mouse assessed as relative lung weight at 20 mg/kg, ip measured after 24 hrs (reference value: 6.35 +/- 0.68 g); format: organism-based; conditions: in vivo
[35] = tested on: Candida albicans; experiment: Antifungal activity against Candida albicans isolate 9 assessed as reduction in fungal growth incubated for 48 hrs by broth microdilution method; format: functional
[36] = tested on: Candida albicans; experiment: Antifungal activity against Candida albicans isolate 10 assessed as reduction in fungal growth incubated for 48 hrs by broth microdilution method; format: functional
[37] = Toxicity in Swiss mouse infected with Candida albicans ATCC 10231 assessed as reduction in body weight at 10 mg/kg, ip administered at 2, 24 and 48 hrs post-infection and measured at 24 hrs after last dose; format: organism-based; conditions: in vivo, 72 h
[38] = tested on: Candida albicans; experiment: In vivo antifungal activity in Swiss mouse infected with Candida albicans ATCC 10231 assessed as reduction in fungal load in liver at 0.5 mg/kg, ip administered at 2, 24 and 48 hrs post-infection and measured per gm of organ at 24 hrs post-last dose (reference value: 1.80); format: functional; conditions: time 72 hrs

In the case of `[Cl-].[N-]=[N+]=NCCCCCCCCCCCCOCCCc1ccc[n+](Cc2ccccc2)c1`, the Activity [1] is reported as “Non-Toxic”, the Activity [2] is reported as 45.03 g and the Activity [3] is reported as “Non-Toxic”. It also gave an Activity [4] of 38.87 g, an MIC [5] of 7.8 µg/mL and an inhibition at 125 µg/mL [6] of 40%. For the same molecule, the MIC [7] was 7.8 µg/mL, the MIC [8] was 7.8 µg/mL and the Activity [9] was “Toxic”. The Activity [10] was 0 log10CFU, the Activity [11] was “Non-Toxic” and the Activity [12] was 4.29 g. The Activity [13] was 43.25 g, the Activity [14] was 5.19 g and the MIC [15] was 7.8 µg/mL. The MIC [16] was 7.8 µg/mL, the Activity [17] was 43.58 g and the Activity [18] was “Active”. For the same molecule, the MIC [19] was 7.8 µg/mL, the MFC [20] was 7.8 µg/mL and the Activity [21] was 0 log10CFU. The Activity [22] was 5.33 g, the MIC [23] was 7.8 µg/mL and the MFC [24] was 7.8 µg/mL. The Activity [25] was 4.93 g, the Activity [26] was “Active” and the Activity [27] was “Active”. The MFC [28] was 7.8 µg/mL, the Activity [29] was 45 g and the MIC [30] was 7.8 µg/mL. For the same molecule, the Activity [31] was 0 log10CFU, the MFC [32] was 31.2 µg/mL and the Activity [33] was 31.37 g. It also gave an Activity [34] of 5.38 g, an MIC [35] of 15.6 µg/mL and an MIC [36] of 15.6 µg/mL. The Activity [37] was “Toxic” and the Activity [38] was 0 log10CFU.
